One compound from US7972785B2, “Biomarkers for liver fibrotic injury” (Industrial Technology Research Institute (ITRI), priority 2006, dated 2011) can be followed below.

The test system of assay [1] is rat liver proteins (vimentin, fibrinogen). The experiment in a line: iTRAQ proteomics / Western blot of liver protein of DMN-treated rats. Type of assay: in vivo. The settings on record: DMN-induced rats. As for the experimental part:
The liver tissues of 6 control and 6 DMN-treated rats were used to perform duplicate iTRAQ labeling experiments. Liver tissue was frozen in liquid nitrogen and then pulverized to powder using a mortar and pestle pre-cooled with liquid nitrogen. Then, the liquid nitrogen was allowed to evaporate, and the powdered tissue was separated into tubes and stored at −80° C. Twenty volumes (w/v) of lysis buffer (containing 2% (w/v) SDS in 20 mM phosphate buffer at pH 7.6) was added to the powdered tissue and incubated at room temperature for 1 hour. […]
The total protein contents were determined using the Coomassie Plus Protein Assay Reagent (PIERCE, Rockford, Ill., U.S.A.). […]
Peptides with different isobaric tags were pooled and acidified by mixing with 10 mM phosphoric acid (in 25% (v/v) acetonitrile and 75% H2O) to a total volume of 4.0 mL for strong cation exchange (SCX) chromatography. […] The desalted peptide from each SCX fraction was dried by speed vacuuming centrifugation and then analyzed by nanoLC hybrid mass spectrometry. […] MS/MS mass spectra were analyzed in continuous flow mode with a […] I.D. fused silica tip. MS/MS spectra were analyzed against rat.fasta databases from NCBI by ProQUANT 2.0 (Applied Biosystems/MDS Sciex, Foster City, Calif., U.S.A.). […] Relative quantification of peptide was performed on the MS/MS scans, using ratio of the areas under the peaks. […]

Assay [2] concerns Tgfβ1, Timp1, Timp2, Mmp3, Ggtp mRNA in rat liver. The experiment in a line: Q-RT-PCR of liver mRNA in DMN-treated rats. Type of assay: in vivo. As for the experimental part: To gain additional information about the established animal model, Q-RT-PCR was used to evaluate the gene expression profile of transforming growth factor-1 (Tgfβ1), which is the strongest known inducer of fibrogenesis in the effector cells of hepatic fibrosis that can stimulate the adipocyte transformation (24-27). The same total RNA samples were used for both microarray and Q-RT-PCR analyses. RNA preparation and analysis were performed according to Affymetrix's (Santa Clara, Calif., U.S.A.) instructions. The TAQMAN® assays were conducted in triplicate for each sample, and a mean value was used for calculation of expression levels. To standardize the quantification of the target genes, 18S ribosomal RNA (18S rRNA) from each sample was quantified on the same plate with the target genes. […] The changes were in agreement with observations described in Jezequel A. M. et al. (14). In sum, these examinations support the DMN-induced rat hepatic fibrosis model.
To validate the microarray data, Q-RT-PCR analysis was performed for tissue inhibitor of metalloproteinase 1 (Timp1), tissue inhibitor of metalloproteinase 2 (Timp2), matrix metalloproteinase 3 (Mmp3) and gamma-glutamyl transpeptidase (Ggtp). These genes were chosen for validation because these genes occurred both in this GeneChip study and in previous studies.
Moreover, a good concordance based on the fold changes between microarray data and Q-RT-PCR results was observed. […] TAQMAN® assays were conducted in triplicate for each sample, and a mean value was used for calculation of expression levels (marked by the square). To standardize the quantification of the Timp1 transcript, 18S rRNA from each sample was quantified on the same plate as the target gene, as indicated by the log scale on the right side of plot. The expression levels of the two Timp1 transcripts, rc_AI169327_at and rc_AI169327_g_at (marked by a circle and a triangle, respectively), were set forth relative to the mean of all gene expression levels as indicated by the scale on the left side of plot.

[3] abbreviates: Q-RT-PCR, DMN-treated samples, data not shown.

Consider `CN(C)N=O` [DMN, Dimethylnitrosamine], for which, in assay [1], the Fibrinogen protein expression entry is “up-regulated”. Besides, the “Tgfβ1 mRNA expression in liver vs controls” value in assay [2] (Q-RT-PCR, DMN-treated rat livers) was “higher level of mRNA expression”. Also, in assay [2] (setting [3]), the Ggtp expression result is listed as “elevated”, the Mmp3 expression entry is listed as “elevated” and the Timp2 expression entry was “elevated”. In addition, the “Timp1 expression elevation in DMN-treated rats” value in assay [2] (both microarray and Q-RT-PCR experiments) was “over 20 fold”.
